This is an account of results in US20250186324A1, “SYNERGISTIC SKIN DEPIGMENTING COSMETIC COMPOSITION” (priority 2022, published 2025).

The test system of experiment [1] is SCF pathway. The experiment can be described thus: SCF pathway in melanocytes: melanogenesis-regulating gene expression after CBD stimulation (qPCR). Type of experiment: cell-based, human. The following applies: 2.5 μM cannabidiol; 0.5 and 5 μM apigenin or 10 and 25 μM phloretin; 24 hours; genes DCT, PAX3. Here is the method:
In order to assess the inhibition of the SCF pathway in melanocytes, human epidermal melanocytes were cultured with 2.5 μM cannabidiol (CBD)+0.5 and 5 μM apigenin or 10 and 25 μM phloretin for 24 hours. After the treatment, the RNA was extracted (Norgen, #17200) and a real-time qPCR was performed (Takara, #R[…]) on the DCT and PAX3 genes.

Experiment [2] relates to DKK1. The experiment can be described thus: DKK1 gene expression (real-time qPCR) in dermal fibroblasts. Type of experiment: cell-based, human. The following applies: 10 and 25 μM apigenin, 24 hours. As for the experimental part: (§1) To assess the levels of key pigmentation regulatory markers in fibroblasts, dermal fibroblasts (Promocell, #C-12302) were cultured for 24 hours with the active ingredient apigenin. After the treatment, the RNA was extracted (Norgen, #17200) and real-time qPCR was performed (Takara, #R[…]) on the DKK1 and VEGF genes.

Experiment [3] concerns Wnt pathway. The experiment can be described thus: Wnt pathway in melanocytes: melanogenesis-regulating gene expression after BIO stimulation (qPCR). Type of experiment: cell-based, human. The following applies: 0.1 μM BIO; 0.5 and 5 μM apigenin or 10 and 25 μM phloretin; 24 hours; genes TYRP1, DCT, PAX3, PMEL17. Here is the method: After the treatment, the RNA was extracted (Norgen, #17200) and a real-time qPCR was performed (Takara, #R[…]) on the TYRP1, DCT, PAX3 and PMEL17 genes.

Experiment [4] concerns skin hyperpigmentation. The following applies: mice treated with UVB; cited from earlier work.
Experiment [5] relates to miR-675. The experiment can be described thus: miR-675 levels in melanocytes (real-time qPCR). Type of experiment: cell-based. The following applies: human epidermal melanocytes, 0.5 μM apigenin, 24 hours. As for the experimental part:
In order to assess the effect of miRNA levels in melanocytes, human epidermal melanocytes were cultured with 0.5 μM apigenin or 10 μM phloretin for 24 hours. After the treatment, the RNA was extracted (Norgen, #17200) and a real-time qPCR was performed (Takara, #638313) on miR-675.

Experiment [6] concerns VEGF. The experiment can be described thus: VEGF gene expression (real-time qPCR) in dermal fibroblasts. The following applies: 10 and 25 μM apigenin, 24 hours. Type of experiment: cell-based, human. As for the experimental part:
as §1

The subject of experiment [7] is tyrosinase. The following applies: spectroscopy and chromatography; cited from earlier work.

`O=c1cc(-c2ccc(O)cc2)oc2cc(O)cc(O)c12` [apigenin, 5,7-dihydroxy-2-(4-hydroxyphenyl)-4H-1-benzopyran-4-one]: in experiment [1], the “expression of the melanogenesis-regulating genes after stimulation with CBD” value was “significantly reduce”. In addition, the DKK1 expression entry in experiment [2] was “significantly induces”. The “expression of melanogenesis-regulating genes after stimulation with BIO” value in experiment [3] was “significantly reduce”. Moreover, the skin hyperpigmentation result in experiment [4] is “inhibits”. For the same compound, in experiment [5], the miR-675 levels entry is reported as “significantly increasing”. In addition, the VEGF expression entry in experiment [6] is “reduces”.
`O=C(CCc1ccc(O)cc1)c1c(O)cc(O)cc1O` [phloretin, 3-(4-hydroxyphenyl)-1-(2,4,6-trihydroxyphenyl)propane-1-one]: the action on tyrosinase result in experiment [7] was “a tyrosinase substrate but also an inhibitor”. The “expression of the melanogenesis-regulating genes after stimulation with CBD” value in experiment [1] was “significantly reduce”. Also, in experiment [3], the “expression of melanogenesis-regulating genes after stimulation with BIO” value was “significantly reduce”.
